Here are results for 3 molecules from US20090162421A1, “DRUGS AS WELL AS THEIR PRODUCTION AND USE IN THE TREATMENT OF PAIN-ASSOCIATED NEUROPATHIES” (PAZ Arzneimittel-Entwicklungsgesellschaft mbH, priority 2007, published 2009).

Each structure is given as a SMILES string.

Data set [1] has as its system spared nerve injury model of peripheral neuropathic pain. As to the kind of experiment: Spared Nerve Injury model (SNI model), treatment day 10 to 21 postoperatively (Example 1). The conditions noted are these: for reduction of allodynia: day 10 to 21 postoperatively. The class given is in vivo, rats. An excerpt:
(§1) The Chronic Constriction Injury model (CCI model) [Bennet G J, Xie Y K: A peripheral mononeuropathy in rat that produces disorders of pain sensation like those seen in man. Pain 1988, 33:87-107] and the Spared Nerve Injury model (SNI model) [Decosterd I, Woolf C J: Spared Nerve injury: an animal model of persistent peripheral neuropathic pain. Pain 2000, 87:149-158] were used as animal models that show essential elements of the clinical pain syndromes in the presence of neuropathies. In both models, the animals sustain defined nerve damage by surgical means. The pain behavior of the animals can be used to quantitatively measure the efficacy of substances in pain-associated neuropathies. The investigations were carried out on rats according to the published models. […] The same is not true of most other species of laboratory animals.
(§2) In a first series of experiments, the animals sustained a nerve lesion by surgical means according to the SNI model and according to the CCI model. From day 10 to day 21 postoperatively, groups of 12 animals each received intraperitoneal administrations of the test substances twice daily. In tests according to the SNI model, in each application, 2.5, 4.5 or 9 mg tarenflurbil (referred to as RF2.5, RF4.5, and RF9), 4.5 mg S-flurbiprofen (SF4.5), pure vehicle (vehicle—as control) or 25 mg gabapentin (Gaba25—as reference substance), each per kg of body weight, were administered. The behavioral parameters that are typical of pain-associated neuropathies were measured, namely mechanical allodynia using Frey's aestesiometer, cold allodynia using the acetone test, and cold hyperalgesia using the cold plate at 2° C. In tests according to the CCI model, 4.5 or 9 mg/kg body weight of tarenflurbil (RF4.5 and RF9), 9 mg/kg body weight S-flurbiprofen (SF9) or vehicle (vehicle) were administered per group. As before, mechanical/static allodynia, cold allodynia and cold hyperalgesia were measured using Frey's hair test, the acetone test, and the cold plate at 2° C., respectively.

Data set [2] has as its system chronic constriction injury model of peripheral neuropathic pain. As to the kind of experiment: Chronic Constriction Injury model (CCI model), treatment day 10 to 21 postoperatively (Example 1). The class given is in vivo. The settings on record: rats.
Description: as §1, §2

Details of data set [3]: species or system rats. The settings on record: rat, in vivo, ip, 4.5 mg/kg.
For data set [4] the following is noted: rats; cited from earlier work.
For data set [5] the following is noted: humans; cited from earlier work.
Data set [6] deals with spared nerve injury model of peripheral neuropathic pain. As to the kind of experiment: SNI model, treatment from the first postoperative day for two weeks (Example 2). The class given is in vivo, rats. On the procedure: In another series of experiments, animals having sustained nerve damage according to the SNI model were treated twice daily with intraperitoneal doses of 9 mg/kg body weight tarenflurbil or vehicle from the first postoperative day and for a period of two weeks. Both the mechanical dynamic allodynia (on the ipsilateral and on the contralateral side) and the cold allodynia (ipsilateral only) were measured by means of Frey's aesthesiometer and the cold plate at 10° C., respectively.

Data set [7] relates to rats that had not sustained damage. As to the kind of experiment: Single dose in rats that had not sustained damage (Example 3). The class given is in vivo. The conditions noted are these: undamaged rats, single i.p. dose of 9 mg/kg, up to 6 hours after application. On the procedure: For qualification of the series' of experiments mentioned above, a single dose of 9 mg/kg body weight tarenflurbil (RF9) or vehicle (vehicle) was applied intraperitoneally in another series of experiments on rats that had not sustained damage and the mechanical allodynia and the heat sensitivity were measured for up to 6 hours after the application using Frey's aesthesiometer and the Hargreaves model, respectively. […] This means that the effects measured for tarenflurbil in Examples 1 and 2 are exclusively related to the effect in pain-associated neuropathies.

Where [8] appears, read: SNI model, rats, 4.5 mg/kg twice daily i.p.
Setting [9] is: summary statement for the pharmacological models.

Take `C[C@H](C(=O)O)c1ccc(-c2ccccc2)c(F)c1` [S-flurbiprofen, reference compound]: the reduction of allodynia entry in data set [1] (setting [8]) and in data set [2] (9 mg/kg twice daily i.p.) was “no significant effect” throughout. Also, the “effect in models of pain-associated neuropathies” value in data set [1] (setting [9]) is given as “does not show a significant effect”. Also, the gastrointestinal bleeding result in data set [3] is on record as “gastrointestinal bleeding in some animals”.
For the molecule `C[C@@H](C(=O)O)c1ccc(-c2ccccc2)c(F)c1` [tarenflurbil], the “inversion of tarenflurbil to S-flurbiprofen” value in data set [4] is “basically do not invert”. Further, the reduction of allodynia entry was “significant reduction” in data set [1] (setting [8]); “significant reduction” in data set [1] (SNI model, rats, 9 mg/kg twice daily i.p.); “significant reduction” in data set [2] (4.5 mg/kg twice daily i.p.); “significant reduction” in data set [2] (9 mg/kg twice daily i.p.). The “efficacy relative to reference substance gabapentin” value in data set [1] (if dosed sufficiently, vs 25 mg/kg body weight gabapentin) was “in the range of the efficacy of 25 mg/kg body weight gabapentin”. Besides, the “effect in models of pain-associated neuropathies (dose dependence)” value in data set [1] (setting [9]) is recorded as “dose-dependent effect”. The “inversion of the R-form to the S-form under in vivo conditions” value in data set [5] is “no or no more than extremely minor inversion”. In data set [6] (9 mg/kg twice daily i.p. from first postoperative day for two weeks), the “mechanical allodynia, contralateral side, vs vehicle” value is on record as “no difference”. Moreover, the “mechanical allodynia, ipsilateral side, vs vehicle” value in data set [6] (9 mg/kg twice daily i.p. from first postoperative day, entire treatment period of two weeks, Frey's aesthesiometer) is on record as “significantly different effect from vehicle”. For the same molecule, the “cold allodynia, ipsilateral side, vs vehicle” value in data set [6] (9 mg/kg twice daily i.p. from first postoperative day, entire treatment period of two weeks, cold plate at 10° C.) is “significantly different effect from vehicle”. Besides, the “time until pain-relieving effect falls to pain intensity of the vehicle group” value in data set [6] (after completion of two weeks of 9 mg/kg twice daily i.p.) was “eight days after the end of treatment”. Besides, the “mechanical allodynia vs vehicle” value in data set [7] (Frey's aesthesiometer) is “no significant differences”. For the same molecule, in data set [7] (Hargreaves model), the “heat sensitivity vs vehicle” value is reported as “no significant differences”.
With `NCC1(CC(=O)O)CCCCC1` [Gabapentin, gabapentin, reference compound], in data set [1] (SNI model, rats, 25 mg/kg twice daily i.p., positive control), the “effect on allodynia compared with tarenflurbil” value is given as “no significant difference from tarenflurbil”.
